Measured values as given in US20240208950A1, “COMPOSITIONS AND METHODS FOR TREATMENT OF CERVICAL AND OVARIAN CANCER” (SOUTH DAKOTA BOARD OF REGENTS, priority 2021, published 2024).

How the values were obtained:
Type in all cases: cell-based, human
[1] = system: E-cadherin and N-cadherin mRNA in cervical cancer cells; assay: qPCR of E-cadherin and N-cadherin; details: both cervical cancer cells, 18 hours
Protocol: (§1) RNA from cervical cancer cells was isolated using Qiagen kit and quantified using NanoDrop instrument 2000 (Thermo Scientific, Waltham, MA, USA). To analyze the expression of miR-200a in control and Br-ORM treated cells, 100 ng total RNA was reverse transcribed into cDNA using specific primers designed for miRNA analysis (Applied Biosystems, Foster City, CA, USA). The expression of this miRNAs was determined by qRT-PCR using the Taqman PCR master mixture and specific primers designed for detection of mature miRNAs (Applied Biosystems). The expression of miRNA was normalized with the expression of endogenous control, RNU6B.
Epithelial mesenchymal transition (EMT) is the basic characteristic of cancer cells in which epithelial cells undergo morphologic and molecular changes that transform the cells to mesenchymal, highly metastatic (invasive and motile), and drug-resistant phenotypes. […] The effect of Br-ORM treatment on various EMT markers in cervical cancer cells was evaluated. […] The effect of Br-ORM on expression of EMT markers in cervical cancer cells compared to untreated group by use of qPCR analysis was determined. […] Expression of E-cadherin in cervical cancer cells treated with Br-ORM (10 μM) for 18 hours was also determined by immunofluorescence and confocal microscopy. […]
FIG. 14. […] Closure of wound was determined and photographed using phase contrast microscopy. […]

[2] = system: miR-200a in cervical cancer cells; assay: qRT-PCR of miR-200a; details: qPCR, 24 hours
Protocol: as §1
Modulations of microRNAs are involved in cervical cancer development, progression and metastasis. It is reported that expression of β-catenin is directly regulated by miR-200a. Br-ORM targets β-catenin signaling, therefore, to further understand the underlying mechanisms, the expression of miR-200a following the Br-ORM treatment was evaluated.
(§2) FIG. 16. Effect of Br-ORM on HPV oncoproteins and tumor suppressor miR-200 in cervical cancer cells. […] Increase expression of tumor suppressor miR200a in cervical cancer cells treated with BR-ORM for 24 hours in comparison to non-treated controls was determined through real time PCR (FIG. 16A(v)-(vii)). […]

[3] = system: HPV16 E6 and E7 transcripts in CaSki cells; assay: qPCR of HPV E6 and HPV E7 transcripts, CaSki; details: 18 hours
Protocol: as §1
HPV infections are associated with a majority of cervical cancer cases. The effect of Br-ORM on the expression of HPV E6 and HPV E7 oncogenes in CaSki and SiHa cells was investigated. […] Br-ORM repressed both transcription and translation of E6 and E7 oncogene in cervical cancer cells.
as §2

What does the source list for `COc1ccc2c(c1)OC(C)(C)C(c1ccc(Br)cc1)C2c1ccc(OCCN2CCCC2)cc1` (stereo not shown) [ORM-Br]?
mRNA level of E-cadherin [1]: significantly elevated; mRNA level of N-cadherin [1]: significantly reduced; expression of miR-200a [2]: significant (P<0.05) increase; HPV16 E6 and E7 transcripts [3]: significant downregulation
